From US9120753B2, “Phenol derivatives and pharmaceutical or cosmetic use thereof” (GALDERMA RESEARCH & DEVELOPMENT, priority 2009, dated 2015)

Target: T1, AR receptor (Homo sapiens, UniProt P10275)
T1 construct: expressed in transfected cells; host or cells: PALM (PC3 stably transfected with PMMTV-neo-Luc and pSG5puro-AR)
T1 sequence (P10275 1-920): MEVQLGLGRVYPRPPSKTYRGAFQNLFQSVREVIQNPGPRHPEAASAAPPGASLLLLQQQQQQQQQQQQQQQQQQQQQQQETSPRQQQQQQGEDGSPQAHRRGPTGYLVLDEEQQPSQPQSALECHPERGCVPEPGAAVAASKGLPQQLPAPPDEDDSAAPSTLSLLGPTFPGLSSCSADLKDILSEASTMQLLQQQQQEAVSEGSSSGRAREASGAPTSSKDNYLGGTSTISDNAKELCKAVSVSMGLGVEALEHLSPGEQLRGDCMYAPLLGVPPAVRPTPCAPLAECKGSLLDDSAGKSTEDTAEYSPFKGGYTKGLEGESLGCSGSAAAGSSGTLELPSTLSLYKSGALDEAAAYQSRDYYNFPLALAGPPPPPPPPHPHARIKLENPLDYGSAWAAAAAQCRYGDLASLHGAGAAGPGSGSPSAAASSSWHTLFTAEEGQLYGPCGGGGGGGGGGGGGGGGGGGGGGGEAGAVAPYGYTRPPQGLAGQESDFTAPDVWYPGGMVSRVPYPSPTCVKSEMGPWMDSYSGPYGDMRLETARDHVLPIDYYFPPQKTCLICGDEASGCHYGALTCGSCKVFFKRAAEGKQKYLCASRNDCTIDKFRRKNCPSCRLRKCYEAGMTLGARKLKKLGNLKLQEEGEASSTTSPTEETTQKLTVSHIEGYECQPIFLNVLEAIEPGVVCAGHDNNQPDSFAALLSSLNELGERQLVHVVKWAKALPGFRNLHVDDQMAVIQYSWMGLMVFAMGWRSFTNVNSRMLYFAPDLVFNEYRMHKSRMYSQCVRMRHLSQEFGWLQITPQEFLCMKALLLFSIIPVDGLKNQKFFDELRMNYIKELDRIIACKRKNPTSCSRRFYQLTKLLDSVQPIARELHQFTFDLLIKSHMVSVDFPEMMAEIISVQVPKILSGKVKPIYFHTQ
Assay: transactivation test in PALM (PC3 Androgen receptor Luciferase MMTV) cell line, cross curves against methyltrienolone
Type: cell-based
Conditions: cross curves vs reference agonist methyltrienolone, read-out: Kdapp (apparent dissociation constant)
Description: The compounds according to the invention show inhibitory properties on receptors of AR type. This AR receptor-inhibiting activity is measured in a transactivation test through the KdR (resting), KdA (active) and Kdapp (apparent) dissociation constants according to the method set out in J. Molecular Biology (1965), 12(1), 88-118, Monod J. et al.
The expression “AR-type receptor inhibitor” means, according to the invention, any compound which has a Kdapp dissociation constant of less than or equal to 1 μM, and a KdR/Kda ratio ≦10, in a transactivation test.
The transactivation test is carried out in the PALM (PC3 Androgen receptor Luciferase MMTV) cell line which is a stable transfectant containing the PMMTV-neo-Luc (reporter gene) and pSG5puro-AR plasmids.
In this study, the affinity of each product for the 2 receptor states (KdR and KdA) is determined, as is an apparent Kd (Kdpp). This constant is a result of the 2 Kd, but also depends on the initial equilibrium of the receptor between the active state and the resting state (L0) and on its expression level. It is determined by means of the following formula: 1/KdApp=(L0/(1+L0))x(1/KdR)+(1/(1+L0))x(1/KdA)
To determine these constants, “cross curves” of the test product against a reference agonist, methyltrienolone, are produced in 96-well plates. The test product is used at 10 concentrations and the reference agonist at 7 concentrations.
In the case of `Oc1cccc(F)c1CNc1cncc(Br)c1` [Compound 2, 2-[(5-Bromopyridin-3-ylamino)methyl]-3-fluorophenol], the Kd is reported as 5 nM. With `N#Cc1cncc(NCc2ccccc2O)c1` [Compound 4, 5-(2-Hydroxybenzylamino)nicotinonitrile] the Kd was 200 nM. With `CCC(Nc1cncc(Br)c1)c1ccccc1O` (stereo not drawn) [Compound 9, 2-[1-(5-Bromopyridin-3-ylamino)propyl]phenol] the Kd was 60 nM. With `Oc1ccccc1CNc1cncc(Br)c1` [Compound 1, 2-[(5-Bromopyridin-3-ylamino)methyl]phenol] the Kd was 6 nM. Molecule `Cc1cncc(NCc2ccccc2O)c1` [Compound 14, 2-[(5-Methylpyridin-3-ylamino)methyl]phenol] has a Kd of 15 nM.

System: not given
Assay: not given
Conditions: not given
With `Oc1ccccc1CNc1cncc(Br)c1` [Compound 1, 2-[(5-Bromopyridin-3-ylamino)methyl]phenol] the melting point was 184 °C.
